The results in this text go back to patent publication US9561214B2, “Method of treatment using inhibitors of mitosis” (Array BioPharma Inc., priority 2008, dated 2017).

Data set [1] is described as follows: Determination of MTD in a Phase 1 study in patients with solid tumors. Type of data set: in vivo. An excerpt: A total of 13 patients with various solid tumors and with a median age of 66 years (range 40-79 years old) were enrolled in a human phase 1 clinical trial (see “Phase I Safety and Pharmacokinetic Study of ARRY-520 in Solid Tumors.” http://clinicaltrials.gov/ct2/show/NCT00462358, herein incorporated by reference). The solid tumors treated were breast cancer (2), colorectal cancer (2), non-small cell lung cancer (2), pancreatic cancer (2), bladder cancer, salivary gland cancer (adenoid cystic), esophageal cancer, mesothelioma cancer, and a mixed small cell lung cancer/non-small cell lung cancer. Compound 4 was provided for administration as a lyophilized powder contained in a Type 1 clear glass vial for IV use. The dose levels administered were 1.25 and 1.6 mg/m^2/day of Compound 4 on Days 1 and 2 every two weeks.

Data set [2] in a line: Tumor growth inhibition on different dosing schedules (HT-29), tolerability. Format: in vivo. The settings on record: 10 mg/kg IP on days 1, 2, 3, 4 and 5; female nude mice with HT-29 xenografts. The protocol:
Female nude mice were implanted subcutaneously with 5×10^6 HT-29 cells in 100 μL PBS. Eleven to fourteen days later, tumors were measured and mice randomized into groups of seven with average tumor volume in each group of approximately 230 mm^3. Compound 4 was dissolved in normal saline immediately prior to dosing, and administered IP at a volume of 10 mL/kg. Dosing was vehicle alone on day 1 and day 2; and Compound 4 at 20 mg/kg on day 1; 20 mg/kg on days 1 and 2; 20 mg/kg on days 1 and 3; 5 mg/kg on days 1, 2 and 3; 10 mg/kg on days 1, 2 and 3; 10 mg/kg on days 1, 2, 3, 4 and 5; 10 mg/kg on days 1 and 2; and 10 mg/kg on days 1 and 3. Animal weights and tumor volumes were measured (using electronic calipers) twice a week. Tumor volume was calculated using the formula: volume=(width^2×length)/2. Dosing at 10 mg/kg on days 1, 2, 3, 4 and 5 was not tolerated (greater than 20% weight loss and/or death in some of the mice).

Data set [3] in a line: Determination of MTD in nude mice (HT-29 xenograft study). The note with it: mouse, in vivo; female nude mice with subcutaneous HT-29 xenografts; dissolved in normal saline. The protocol: Female nude mice were implanted subcutaneously with 5×10^6 HT-29 cells in 100 μL PBS. Ten days later, tumors were measured and mice randomized into groups of three with average tumor volume in each group of approximately 240 mm^3. Compound 4 was dissolved in normal saline immediately before dosing. It was determined that 20 mg/kg was the MTD for Compound 4. Dose volume was 10 mL/kg. Dosing was vehicle alone on day 1; and Compound 4 at 20 mg/kg on day 1; and 20 mg/kg on days 1 and 3. At various time points after dosing (24, 48, 72, 96, 120 and 144 hours), mice were euthanized by CO2 inhalation, and the tumors were harvested and immediately placed in formalin. The vehicle control group samples were collected 24 and 72 hours after dosing. The day 1 group samples were collected 24, 48, 72 and 96 hours after that dose. The day 1 and day 3 group samples were collected 72, 96, 120 and 144 hours after the first dose. Paraffin blocks of tumor tissue were prepared by standard procedures. […] Spindle structures were manually counted in three 40× areas of each sample, using a fluorescent microscope. Apoptosis was quantitated by manual counting of TUNEL positive cells, also in three 40× areas of each sample (TUNEL staining using the In Situ Cell Death Detection Kit, AP from Roche).

Each structure is given as a SMILES string.

Regarding `CON(C)C(=O)N1N=C(c2cc(F)ccc2F)S[C@@]1(CCCN)c1ccccc1` [Compound 4, (S)-2-(3-aminopropyl)-5-(2,5-difluorophenyl)-N-methoxy-N-methyl-2-phenyl-1,3,4-thiadiazole-3(2H)-carboxamide], the MTD in data set [1] (IV on Days 1 and 2 every two weeks, 13 patients with solid tumors, dose levels 1.25 and 1.6 mg/m^2/day) was 1.25 mg/m^2/day. In addition, in data set [1] (IV on Days 1 and 2 every two weeks, patients with solid tumors), the “MTD, cumulative dose per cycle” value came out at 2.5 mg/m^2. For the same compound, the DLTs entry in data set [1] (human, in vivo, iv) is “Grade 3 hyponatremia, anorexia, AST increase and febrile neutropenia”. Moreover, in data set [2], the “tolerability of dosing schedule” value is recorded as “not tolerated” and the “weight loss and/or death in some of the mice” value is reported as “greater than 20%”. The MTD in data set [3] worked out at 20 mg/kg.
